Literature values, collected in patent US10092609B2, “Process for preparing medicinal mycological preparations” (priority 2015, dated 2018).

Conditions: in vivo

CC[C@H](C)C(=O)O[C@H]1C[C@@H](C)C=C2C=C[C@H](C)[C@H](CC[C@@H]3C[C@@H](O)CC(=O)O3)[C@H]21 [lovastatin]
reduction of “bad” LDL-cholesterol in circulation: about 20%
